# Laboratory results taken from US20150359866A1, “TREATMENT OF CERVICAL AND RELATED […] TOPICAL IMMUNOMODULATORS” (THE JOHNS HOPKINS UNIVERSITY, priority 2014, published 2015).
# System: CIN2/3 lesions associated with HPV genotypes other than HPV16
# Experiment: Clinical trial of topical imiquimod on CIN 2/3 lesions (lesion regression)
# Format: in vivo, human
# Description: Treatment protocol. In an embodiment, patients are screened at their initial colposcopic evaluation for referral for evaluation of high grade pap smears. Immunocomptetent patients with biopsy-confirmed CIN2/3 which is HPV16 negative will be eligible for enrollment. Both treatment and control groups will be assessed for histologic diagnosis at week 15, change in cervical quantitative HPV viral load, safety, toxicity, tolerability, and for measures of local mucosal immune responses. Patients will be given imiquimod (5%) or vehicle at Day 0, week 4, and week 8 and then histological diagnosis is determined at week 15.
# Imiquimod administration on the lesion at each vaccination. In an embodiment, patients received a total of three applications of imiquimod directly on the cervical lesion, one application at the time of each vaccination. One single use packet containing 250 mg of 5% imiquimod was used for each treatment. After insertion of a vaginal speculum, the cream is applied directly to the lesion by the PI, using a cotton-tipped applicator. The speculum is withdrawn, and a tampon is placed as a medication barrier. Patients will be instructed to leave the tampon in place for about 4 to 6, and no more than 10 hours. […]
# Clinical trial results. […] Subjects were monitored for mucosal irritation. […]
structure (smiles),measurement,setting,value
"CC(C)Cn1cnc2c(N)nc3ccccc3c21 [imiquimod, 1-(2-methylpropyl)-1H-imidazo[4,5-c]quinolin-4-amine]",rate of regression relative to untreated HPV16-negative CIN2/3 patients,"FIG. 4, untreated rate in same timeframe 30-40%",nearly double
same,rate of regression of CIN2/3 lesions,"HPV16-negative subjects, 12.5 mg imiquimod in 250 mg cream applied to the cervical lesion three times at four-week intervals, assessed eight weeks after third application, 10/16 subjects",62.5%
